Laboratory results taken from patent US8268575B2, “NAD biosynthesis systems” (Washington University, priority 2004, dated 2012).
“Also recorded” adds a separate entry of the source.

Legend:
[1] = target: T1, purified recombinant mouse Nmnat (Mus musculus, UniProt Q9EPA7); assay: enzyme-coupled fluorometric assay, kinetic parameters for Nmnat; assay type: biochemical; settings: substrate of Nmnat
T1 construct: the purified full-length His-tagged Nampt and Nmnat recombinant proteins; made in house; host or cells: E. coli BL21(DE3)pLysS
T1 sequence (Q9EPA7 whole entry): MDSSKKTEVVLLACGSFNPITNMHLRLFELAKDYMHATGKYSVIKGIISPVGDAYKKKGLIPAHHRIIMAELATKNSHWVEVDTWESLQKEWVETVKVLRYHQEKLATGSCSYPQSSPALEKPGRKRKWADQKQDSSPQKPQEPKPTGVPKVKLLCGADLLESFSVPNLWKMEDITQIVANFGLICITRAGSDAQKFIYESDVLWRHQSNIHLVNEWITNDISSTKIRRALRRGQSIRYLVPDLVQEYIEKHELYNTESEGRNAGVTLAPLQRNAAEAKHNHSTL
Method: (§1) Enzymatic activities of recombinant Nampt and Nmnat proteins were measured by an enzyme-coupled fluorometric assay (see e.g. FIG. 2A). In this enzyme-coupled reaction, NAD is converted to NADH by alcohol dehydrogenase, and the fluorescence of NADH is detected in a fluorometer. To establish this assay system, optimal reaction conditions for Nmnat were initially examined by varying ATP and Mg^2+ concentrations and pH of the reaction buffer. The resultant reaction buffer for Nmnat contained 50 mM HEPES [pH 7.4], 0.02% BSA, 12 mM MgCl2, 2 mM ATP, 1.5% ethanol, and 30 μg/ml alcohol dehydrogenase to convert NAD to NADH. To determine the kinetic parameters for Nmnat, 30 ng of purified His-tagged Nmnat and varying concentrations of NMN were added to 1 ml of the reaction buffer. The reactions were run at 37° C. and quenched at six time points by the addition of 250 μl of 0.5 M EDTA. The production of NADH was measured by excitation at 340 nm and emission at 460 nm in a fluorometer. […] NADH production was measured continuously in a fluorometer.

[2] = target: GAL4 DBD fused to the Sir2α catalytic core domain (GAL4 DBD-mCORE) (Mus musculus, UniProt Q923E4); settings: 5 mM, added 24 h after transfection, NIH3T3 cells
Sequence of GAL4 DBD fused to the Sir2α catalytic core domain (GAL4 DBD-mCORE) (Q923E4 with tags, fused parts or gaps): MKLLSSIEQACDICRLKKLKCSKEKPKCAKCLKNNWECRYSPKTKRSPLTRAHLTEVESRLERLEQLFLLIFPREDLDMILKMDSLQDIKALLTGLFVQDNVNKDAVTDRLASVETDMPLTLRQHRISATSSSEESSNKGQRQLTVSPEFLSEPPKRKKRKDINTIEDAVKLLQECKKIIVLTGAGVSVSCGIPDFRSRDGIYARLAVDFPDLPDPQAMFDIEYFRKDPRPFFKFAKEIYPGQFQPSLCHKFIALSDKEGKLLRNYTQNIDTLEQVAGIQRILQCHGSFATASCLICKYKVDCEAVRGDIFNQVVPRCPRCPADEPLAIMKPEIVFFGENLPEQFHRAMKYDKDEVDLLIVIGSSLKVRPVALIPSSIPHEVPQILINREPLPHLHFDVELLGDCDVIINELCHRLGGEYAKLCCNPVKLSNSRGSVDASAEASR
Method: A reporter gene transcription assay using a GAL4 DNA binding domain (GAL4 DBD) fusion system was developed to monitor the transcriptional regulatory activity of the mouse Sir2 ortholog, Sir2α. […] This assay system used the GAL4 DBD fused to the Sir2α catalytic core domain (GAL4 DBD-mCORE) and a luciferase reporter that has a thymidine kinase minimal promoter and four GAL4 binding sites.
For the luciferase assay, 1.2×10^5 NIH3T3 cells were plated in 6 cm dishes. 24 h after plating, cells were transfected for 3 h with 380 ng of pUAS4tk-luc as a reporter, 1.5 μg of pM or pM-GAL4 DBD-mCORE as an effector, and 38 ng of pRL-SV40 (Promega, Wis.) as a normalization control by using Superfect (Qiagen). Transfectants were harvested 48 h after transfection, and luciferase activity was measured with the Dual-Luciferase Reporter Assay System (Promega, Wis.) and a SIRIUS luminometer (Berthold Detection Systems, Germany) according to the manufacturers' protocols. Background luminescence was subtracted and was always less than 1% of measured values. Transfection efficiencies were normalized based on Renilla luciferase activities. […] To examine the effects of Nampt and Nmnat on the transcriptional repressive activity of GAL4 DBD-mCORE, NIH3T3 cells were co-transfected with indicated amounts of Nampt and Nmnat expression vectors along with reporter, effector and normalization control plasmids.

NIH3T3 cells = assay: total cellular NAD levels by HPLC in NIH3T3 cells; assay type: cell-based, mouse; settings: 5 mM added to the medium
Method: Total cellular levels of NAD was measured in the NIH3T3 cell lines overexpressing the untagged enzymes. High performance liquid chromatography was used to measure NAD (Neubert et al., Biochim. Biophys. Acta. (1964) 92, 610-612; Emanuelli et al., J. Chromatogr. (1996) B. 676, 13-18). Briefly, 5×10^5 cells were plated in 6 cm dishes and harvested 48 h later in 800 μl of ice-cold PBS. Cells were then spun down and lysed with 300 μl of 1 M HClO4 on ice for 10 min. Lysates were cleared by centrifugating at 4° C. at 18,000 g for 5 minutes. Cleared lysates (240 μl) were neutralized by adding 80 μl of 3M K2CO3 and incubating on ice for 10 minutes. After centrifuging for 10 min, 100 μl of the supernatant were mixed with 400 μl of Buffer A and loaded onto the column. The HPLC was run at a flow rate of 1 ml/min with 100% Buffer A from 0 to 5 min, a linear gradient to 95% Buffer A and 5% Buffer B (100% methanol) from 5 to 6 min, 95% Buffer A and 5% Buffer B from 6 to 11 min, a linear gradient to 85% Buffer A and 15% Buffer B from 11 to 13 min, 85% Buffer A and 15% Buffer B from 13 to 23 min, and a linear gradient to 100% Buffer A from 23 to 24 min. NAD was eluted as a sharp peak at 22 min. The amount of NAD was quantitated based on the peak area compared to a standard curve.

[3] = target: T2, purified recombinant mouse Nampt (Mus musculus, UniProt Q99KQ4); assay: enzyme-coupled fluorometric assay, kinetic characterization of Nampt; assay type: biochemical; settings: substrate of Nampt
T2 construct: the purified full-length His-tagged Nampt and Nmnat recombinant proteins; made in house; host or cells: E. coli BL21(DE3)pLysS
T2 sequence (Q99KQ4 whole entry): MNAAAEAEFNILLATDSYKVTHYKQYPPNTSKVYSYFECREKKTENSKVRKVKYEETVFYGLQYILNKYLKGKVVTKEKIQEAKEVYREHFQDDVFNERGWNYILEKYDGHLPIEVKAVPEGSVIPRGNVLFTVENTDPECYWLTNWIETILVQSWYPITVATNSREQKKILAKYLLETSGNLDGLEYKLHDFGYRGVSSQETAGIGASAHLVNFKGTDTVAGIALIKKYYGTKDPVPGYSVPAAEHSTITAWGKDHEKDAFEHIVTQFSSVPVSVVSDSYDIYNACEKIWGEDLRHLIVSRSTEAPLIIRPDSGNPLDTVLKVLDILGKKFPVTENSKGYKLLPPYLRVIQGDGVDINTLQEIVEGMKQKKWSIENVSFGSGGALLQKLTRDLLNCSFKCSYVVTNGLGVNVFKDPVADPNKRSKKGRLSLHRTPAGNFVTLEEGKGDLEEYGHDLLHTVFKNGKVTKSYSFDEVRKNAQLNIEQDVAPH
Method: as §1

| SMILES | Kcat [1] | Vmax [1] | Km ([1]; 37° C., pH 7.4) | effect on transcriptional repressive activity of GAL4 DBD-mCORE [2] | effect on total cellular NAD (NIH3T3 cells) | Kcat [3] | Vmax [3] |
| --- | --- | --- | --- | --- | --- | --- | --- |
| NC(=O)c1ccc[n+]([C@@H]2O[C@H](COP(=O)([O-])O)[C@@H](O)[C@H]2O)c1 [NMN, nicotinamide mononucleotide] | 20.0 s⁻¹ | 34.1 µmol/min/mg | 20.1 µM |  |  |  |  |
| O=C(O)c1cccnc1 [nicotinic acid] |  |  |  | not |  |  |  |
| NC(=O)c1cccnc1 [Nicotinamide, 3-pyridinecarboxamide] |  |  |  | abolished | did not increase NAD; also recorded: unable to increase NAD | 0.020 s⁻¹ | 0.021 µmol/min/mg |
